The record followed here is PubChem BioAssay (NCI).

Some test systems named below: SW-620 colon; P388 leukemia; UACC-257 melanoma; OVCAR-8 ovarian; CCRF-CEM leukemia; LOX IMVI melanoma; DLD-1 colon; CAKI-1 renal; SK-MEL-5 melanoma; HL-60(TB) leukemia; A498 renal; KM20L2 colon; NCI-H23 lung; P388/ADR leukemia; HCC-2998 colon; KM12 colon.
Holding throughout (assay): NCI tumour cell line growth inhibition, 48 h

The structures appear in SMILES notation.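 Each compound was tested at five concentrations against cells in 96-well plates for 48 hours. GI50 = concentration required for 50% inhibition of growth. TGI: concentration producing complete growth inhibition.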

In the case of `[Cl-].[Rh+3].c1ccc(-c2ccnc3c2ccc2c(-c4ccccc4)ccnc23)cc1.c1ccc(-c2ccnc3c2ccc2c(-c4ccccc4)ccnc23)cc1.c1ccc(-c2ccnc3c2ccc2c(-c4ccccc4)ccnc23)cc1`, the TGI in the assay on SW-620 colon is more than 100 µM; in the assay with P388 leukemia, more than 71 µM; with UACC-257 melanoma it was more than 100 µM; in the assay with OVCAR-8 ovarian, more than 100 µM; in the assay with CCRF-CEM leukemia, more than 100 µM; in the assay on LOX IMVI melanoma, more than 100 µM. Moreover, the TGI in the assay with DLD-1 colon was more than 64.4 µM; in the assay on CAKI-1 renal, more than 100 µM; in the assay on SK-MEL-5 melanoma, 50.3 µM; in the assay with HL-60(TB) leukemia it was 60.3 µM; in the assay on A498 renal, more than 83.4 µM; with KM20L2 colon it was more than 100 µM. Besides, the TGI in the assay on NCI-H23 lung is more than 100 µM; in the assay with P388/ADR leukemia, more than 100 µM; in the assay with HCC-2998 colon it was 50 µM; in the assay with KM12 colon it was 19.7 µM. Further, the results for the GI50 with P388 leukemia, with CAKI-1 renal and in the assay with P388/ADR leukemia were 24.7 µM, 60.5 µM and 23.7 µM, respectively.
